Results: patent US20130324469A1, “FIBRINOGEN AND KIDNEY DAMAGE” (THE BRIGHAM AND WOMEN'S HOSPITAL, INC., priority 2010, published 2013)
Entries after “also recorded” stand apart in the source; their conditions may differ.

How the values were obtained:
[1] = system: rats; experiment: Galactosamine-induced liver toxicity in rats (specificity of urinary fibrinogen); type: in vivo, rat; settings: 1.1 g/kg ip, 24 h
[2] = system: renal I/R injury in C57BL/6 mice; experiment: 27 min bilateral renal ischemia/reperfusion (I/R) injury in mice, peptide given iv after reperfusion; type: in vivo, mouse
Method: FIG. 3 is a set of four bar graphs showing that Bβ15-42 peptide protects mice from renal ischemia/reperfusion (I/R) injury. Male C57Bl6 mice were subjected to 27 minutes bilateral renal ischemia/reperfusion injury or sham surgery and 3.6 mg/kg of Bβ15-42 peptide or random peptide was administered intravenously 1 min following reperfusion. […] Serum creatinine (SCr), blood urea nitrogen (BUN) as indicators of renal dysfunction and urinary levels of fibrinogen (Fg) and kidney injury molecule-1 (Kim-1) as indicators of kidney injury were measured at 24 and 48 h in all the groups. (n=5/group of sham, n=10/group at 24 hours and n=5/group at 48 hours).* represents p<0.05 as determined by one way ANOVA in comparison with sham mice.
Blood and urine analysis was performed as follows. At sacrifice, blood was collected from dorsal aorta in heparinized tubes. Serum creatinine (SCr) concentrations were measured using a Beckman Creatinine Analyzer II. Blood urea nitrogen (BUN) was measured spectrophotometrically at 340 nm using a commercially available kit (Thermo Scientific, Rockford, Ill.) as described before (Krishnamoorthy et al., Toxicol Sci. 2010; 118(1):298-306).
Urines were collected by placing animals in individual metabolic cages and one ml of RNAlater (Ambion, Austin, Tex.) was added to the tubes to preserve RNA. Urinary Kidney Injury Molecule-1 (Kim-1 in rats and KIM-1 in humans) was measured using previously established luminex-based assays (Vaidya et al., Nat Biotechnol. 2010; 28(5):478-485; Vaidya et al., Clinical and Translational Science. 2008; 1(3):200-208). Urinary Kim-1 in mice was measured using a luminex-based assay. Urinary N-acetyl-β-D-glucosaminidase (NAG) was measured spectrophotometrically according to the manufacturers' protocols (Roche diagnostics, Basel Switzerland). Urinary creatinine concentration was used to normalize biomarker measurements in order to account for the influence of urinary dilution on biomarker concentrations. Fibrinogen in mouse, rat and human urines was measured using a commercially available species-specific luminex assay based kit from Millipore (Billerica, Mass.).
Immunostaining, to evaluate the cellular expression profile of Fg whole protein and Fgα, Fgβ and Fgγ chains was performed as follows. Kidney tissues were perfused with cold PBS before harvesting and then fixed in formalin for 16 h and embedded in paraffin. The sections incubated overnight at 4° C. in rabbit monoclonal anti-Fibrinogen alpha (Epitomics, Burlingame, Calif.), rabbit polyclonal anti-Fibrinogen beta (ProteinTech Group, Chicago, Ill.), rabbit polyclonal anti-Fibrinogen gamma (ProteinTech Group, Chicago, Ill.), anti-rat fibrinogen (Nordic Immunological Laboratories, Tilburg, The Netherlands), anti-human fibrinogen (Sigma-Aldrich, St. Louis, Mo.) and rabbit monoclonal anti-Ki67 (Vector Laboratories, Burlingame, Calif.). The primary antibody was detected using goat anti-rabbit Cy3 labeled and donkey anti goat Cy3 labeled secondary antibodies (Jackson ImmunoResearch Laboratories, West Grove, Pa.). DAPI (Sigma Aldrich, St. Louis, Mo.) was used for nuclear staining. The tissue sections were mounted using ProLong Gold Antifade Reagent (Invitrogen, Carlsbad, Calif.). The images were captured at 100× for rats, 60× for mice and humans using NIKON Eclipse 90i fluorescence microscope.
Endotoxin free Bβ15-42 ([…]) and random peptide ([…]) were custom synthesized (Invitrogen, Carlsbad, Calif.) with 95% modification and N-terminal amine group addition and free acid modification. Bβ15-42 or random peptide (3.6 mg/kg) was administered intravenously (iv) 1 min after reperfusion following 27 min bilateral renal I/R injury in C57BL/6 mice (n=5 to 10/group). Forty male C57Bl6 wild type mice were anesthetized using pentobarbital sodium (30 mg/kg, ip) and subjected to 27 min of bilateral renal I/R surgery by the retroperitoneal approach. Sham surgery was performed with exposure of both kidneys but without induction of ischemia. […]

[3] = system: LLC-PK1 cells; experiment: BrdU uptake (cell proliferation) of LLC-PK1 cells after mineral-oil hypoxia; type: cell-based, pig; settings: 6 μM; 48 h post hypoxia; serum free; vs random peptide
Method: FIG. 4E is a bar graph showing cell proliferation measured by bromodeoxyuridine (5-bromo-2-deoxyuridine (BrdU) uptake, by LLC-PK1 cells, 48 h post onset of hypoxia at 450 nm wavelength. Absorbance obtained from untreated cells was taken as 100% (n=6 wells/group). * represents p<0.05 as determined by Student's t-test between the two groups.
In vitro experiments using proximal tubular epithelial cells (LLC-PK1) were also performed. The renal tubular epithelial cell line, LLC-PK1, established from pig renal cortex was obtained from ATCC (Manassas, Va.) and maintained in DMEM containing 10% FBS. Two thousand five hundred LLC-PK1 cells were plated in 96 well plate for 24 h in DMEM 10% fetal bovine serum (FBS) at which time they formed a 50% confluent monolayer in the well. They were pretreated with 6 μM of Bβ15-42 or random peptide for 6 h and were immersed in 100 μl of mineral oil on top of DMEM medium without any serum for 6 h. […] Bromodeoxyuridine (5-bromo-2-deoxyuridine (BrdU) was measured as an index of cell proliferation by incubating cells with BrdU for 2 h before harvesting and the absorbance was quantified using a spectrophotometer at 450 nm wavelength as per manufacturer's instructions (Millipore, Bellerica, Mass.). Absorbance obtained from untreated cells was taken as 100% (n=6 wells/group) and the experiment was repeated twice.

[4] = biological target: T1, VE-Cadherin (Homo sapiens, UniProt P33151); settings: disrupts interaction of Fg with VE-Cadherin on endothelial cells; cited from earlier work
T1 sequence (P33151 48-784): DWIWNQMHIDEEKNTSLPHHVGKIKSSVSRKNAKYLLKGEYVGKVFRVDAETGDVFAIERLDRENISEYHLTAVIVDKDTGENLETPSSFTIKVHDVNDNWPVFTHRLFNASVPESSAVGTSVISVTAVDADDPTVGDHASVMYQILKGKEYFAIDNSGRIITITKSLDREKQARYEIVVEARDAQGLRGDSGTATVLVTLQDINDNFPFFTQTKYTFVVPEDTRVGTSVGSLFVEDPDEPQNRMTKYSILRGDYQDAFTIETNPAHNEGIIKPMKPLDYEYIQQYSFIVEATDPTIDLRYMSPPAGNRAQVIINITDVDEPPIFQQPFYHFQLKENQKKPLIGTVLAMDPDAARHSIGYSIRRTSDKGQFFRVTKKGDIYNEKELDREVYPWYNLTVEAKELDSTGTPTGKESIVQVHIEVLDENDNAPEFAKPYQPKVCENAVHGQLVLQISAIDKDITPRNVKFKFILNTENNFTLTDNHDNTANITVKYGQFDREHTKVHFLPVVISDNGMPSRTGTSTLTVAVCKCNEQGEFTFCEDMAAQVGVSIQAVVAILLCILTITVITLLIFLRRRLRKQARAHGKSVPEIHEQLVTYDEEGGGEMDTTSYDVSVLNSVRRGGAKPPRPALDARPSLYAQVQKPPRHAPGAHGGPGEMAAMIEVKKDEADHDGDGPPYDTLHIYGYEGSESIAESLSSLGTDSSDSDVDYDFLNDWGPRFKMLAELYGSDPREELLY

[5] = system: myocardial infarction in animal models; settings: suprapharmacological doses; cited from earlier work
[6] = system: acute lung injury in animal models; settings: suprapharmacological doses; cited from earlier work
[7] = system: patients with acute myocardial infarction; settings: phase IIa; patients whose endothelial barrier integrity had not been compromised; cited from earlier work
[8] = mean ± SEM, listed as galactosamine
[9] = 3.6 mg/kg iv, 24 and 48 h, vs random peptide
[10] = 3.6 mg/kg iv, 24 h after I/R, vs random peptide

Molecule: N[C@H]1C(O)O[C@H](CO)[C@H](O)[C@@H]1O (stereo partly drawn) [Galactosamine, galactosamine]
- histopathological score kidney [1]: 0
- histopathological score liver [1]: 2
- histopathological score kidney ([1]; listed as galactosamine): no signs of kidney structural or functional damage
- histopathological score liver ([1]; listed as galactosamine): extensive hepatocellular damage
- ALT ([1]; mean ± SEM): 422.8 ± 121.9 U/l
- AST ([1]; mean ± SEM): 246.0 ± 57.5 U/l
- BUN ([1]; mean ± SEM): 19.1 ± 1.1 mg/dL
- Scr ([1]; mean ± SEM): 0.5 ± 0.0 mg/dL
- kidney Fgα gene expression (FC relative to control) ([1]; mean ± SEM): 1.2 ± 0.1 FC
- kidney Fgβ gene expression (FC relative to control) ([1]; mean ± SEM): 1.0 ± 0.0 FC
- kidney Fgγ gene expression (FC relative to control) ([1]; mean ± SEM): 0.9 ± 0.1 FC
- kidney Kim-1 gene expression (FC relative to control) ([1]; mean ± SEM): 1.0 ± 0.1 FC
- urinary excretion of Fg ([1]; mean ± SEM): 26.0 ± 26.0 ng/mg Cr
- ALT [1, 8]: significant increase
- AST [1, 8]: significant increase
- kidney Fgα gene expression (FC relative to control) [1, 8]: did not lead to any increase
- kidney Fgβ gene expression (FC relative to control) [1, 8]: did not lead to any increase
- kidney Fgγ gene expression (FC relative to control) [1, 8]: did not lead to any increase
- urinary excretion of Fg [1, 8]: did not lead to any increase

Molecule: GHRPLDKKREEAPSLRPAPPPISGGGYR (synthetically generated peptides) [Bβ15-42, naturally occurring 28 amino acid long product cleaved from fibrin fragments; Fgβ chain derived peptide, custom synthesized, endotoxin free]
- infarct size and vascular congestion ([2]; 3.6 mg/kg iv 1 min after reperfusion, vs random peptide): significant reduction; also recorded: significantly smaller
- leukocyte infiltration (myeloperoxidase staining) [2, 9]: similar
- mRNA levels of inflammatory cytokines (IL-1β, IL-6, IL-10, TNFα, ICAM) and macrophage marker (CD68) in kidney [2, 9]: no difference
- proximal tubular damage in the outer stripe of outer medulla (H & E histopathology) [2, 10]: significant decrease
- reduction in kidney dysfunction measured by blood urea nitrogen (BUN) [2, 10]: Approximately 50%
- reduction in kidney dysfunction measured by serum creatinine (SCr) [2, 10]: Approximately 50%
- reduction in kidney proximal tubular injury measured by urinary Fg [2, 10]: Approximately 50%
- reduction in kidney proximal tubular injury measured by urinary kidney injury molecule-1 [2, 10]: Approximately 50%
- number of TUNEL positive apoptotic cells in the renal medulla ([2]; 24 h, vs random peptide): similar
- apoptosis (TUNEL) in the renal medulla ([2]; 48 h, p<0.05 vs random peptide): significant decrease
- proliferative (Ki67 positive) cells in the renal medulla ([2]; 48 h, vs random peptide): significant number of cells appeared to be in a proliferative state
- acute tubular injury ([2]; mice, bilateral renal I/R injury): substantially reduced
- renal epithelial cell proliferation (BrdU uptake) [3]: stimulating renal epithelial cell proliferation
- interactions with VE-Cadherin [4]: low affinity
- protection from myocardial infarction [5]: protect
- protection from acute lung injury [6]: protect
- clinical effect in acute myocardial infarction [7]: successful protective effects
